For 10 compounds, Kd results are on record in ChEMBL document CHEMBL3991601, “The target landscape of clinical kinase drugs” (Science, 2017).

Test [1] deals with BMP-2-inducible protein kinase (Homo sapiens, UniProt Q9NSY1).
Test [2] concerns the target T1, Cytochrome c1, heme protein, mitochondrial (Homo sapiens, UniProt P08574).
T1 sequence (P08574 whole entry): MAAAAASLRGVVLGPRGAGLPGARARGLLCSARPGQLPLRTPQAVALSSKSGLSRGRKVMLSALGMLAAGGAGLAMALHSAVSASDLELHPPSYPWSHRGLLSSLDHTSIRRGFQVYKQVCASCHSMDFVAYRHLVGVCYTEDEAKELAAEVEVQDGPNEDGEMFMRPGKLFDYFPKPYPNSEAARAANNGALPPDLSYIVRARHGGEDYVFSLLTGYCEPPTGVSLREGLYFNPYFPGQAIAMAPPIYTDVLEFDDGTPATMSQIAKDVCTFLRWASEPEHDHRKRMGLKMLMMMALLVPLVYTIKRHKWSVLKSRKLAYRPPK

Test [3] addresses T2, Electron transfer flavoprotein subunit beta (Homo sapiens, UniProt P38117).
T2 sequence (P38117 whole entry): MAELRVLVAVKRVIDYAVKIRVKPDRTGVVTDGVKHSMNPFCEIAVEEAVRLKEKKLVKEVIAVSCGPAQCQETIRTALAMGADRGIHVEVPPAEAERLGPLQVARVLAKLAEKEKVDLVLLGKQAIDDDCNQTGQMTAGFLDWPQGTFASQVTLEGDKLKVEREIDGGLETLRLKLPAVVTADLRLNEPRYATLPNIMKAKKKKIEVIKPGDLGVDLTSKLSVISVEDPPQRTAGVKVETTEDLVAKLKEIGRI

The target of test [4] is Tyrosine-protein kinase Fyn (Homo sapiens, UniProt P06241).
Tyrosine-protein kinase Fyn, sequence (P06241 whole entry): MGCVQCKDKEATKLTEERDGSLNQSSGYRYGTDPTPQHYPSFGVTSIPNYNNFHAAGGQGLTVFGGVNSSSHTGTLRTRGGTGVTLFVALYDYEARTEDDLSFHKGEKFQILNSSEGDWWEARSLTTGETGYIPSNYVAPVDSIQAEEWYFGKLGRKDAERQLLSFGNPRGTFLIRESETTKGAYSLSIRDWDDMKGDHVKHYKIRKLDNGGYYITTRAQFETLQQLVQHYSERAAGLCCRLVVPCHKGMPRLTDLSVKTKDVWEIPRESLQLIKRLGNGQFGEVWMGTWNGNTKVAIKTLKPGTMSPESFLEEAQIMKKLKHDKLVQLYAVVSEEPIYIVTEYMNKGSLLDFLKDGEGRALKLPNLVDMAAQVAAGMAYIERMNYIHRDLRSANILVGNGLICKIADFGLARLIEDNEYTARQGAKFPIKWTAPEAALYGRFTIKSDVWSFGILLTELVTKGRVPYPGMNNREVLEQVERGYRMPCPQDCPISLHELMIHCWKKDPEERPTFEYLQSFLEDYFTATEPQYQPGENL
Test [5] has as its target Mitogen-activated protein kinase 8 (Homo sapiens, UniProt P45983).
Test [6] has as its target T3, DNA replication licensing factor MCM4 (Homo sapiens, UniProt P33991).
T3 sequence (P33991 whole entry): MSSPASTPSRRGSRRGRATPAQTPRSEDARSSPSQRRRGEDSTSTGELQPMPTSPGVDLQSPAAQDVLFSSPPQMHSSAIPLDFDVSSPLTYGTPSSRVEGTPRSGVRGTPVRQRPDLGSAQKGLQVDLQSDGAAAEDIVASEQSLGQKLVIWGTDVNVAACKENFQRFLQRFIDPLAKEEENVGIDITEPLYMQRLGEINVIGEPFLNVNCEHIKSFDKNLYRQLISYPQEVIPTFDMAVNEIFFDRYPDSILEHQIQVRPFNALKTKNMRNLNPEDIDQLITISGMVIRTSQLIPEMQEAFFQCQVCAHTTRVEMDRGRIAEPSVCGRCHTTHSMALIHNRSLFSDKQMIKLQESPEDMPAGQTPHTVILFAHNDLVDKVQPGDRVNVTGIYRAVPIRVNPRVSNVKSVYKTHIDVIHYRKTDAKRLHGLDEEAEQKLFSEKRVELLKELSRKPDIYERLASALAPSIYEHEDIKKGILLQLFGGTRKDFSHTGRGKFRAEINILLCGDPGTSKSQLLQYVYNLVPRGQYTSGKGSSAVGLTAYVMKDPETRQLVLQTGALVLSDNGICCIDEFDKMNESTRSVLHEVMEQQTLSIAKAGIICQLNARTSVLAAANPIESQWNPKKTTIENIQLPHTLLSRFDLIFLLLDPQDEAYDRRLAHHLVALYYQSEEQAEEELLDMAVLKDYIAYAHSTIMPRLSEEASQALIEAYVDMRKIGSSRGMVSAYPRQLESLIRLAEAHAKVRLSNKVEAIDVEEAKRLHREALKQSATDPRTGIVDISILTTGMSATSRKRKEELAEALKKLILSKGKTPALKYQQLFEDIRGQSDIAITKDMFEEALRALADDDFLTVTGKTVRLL

The target of test [7] is T4, Pyridoxal kinase (Homo sapiens, UniProt O00764).
T4 sequence (O00764 whole entry): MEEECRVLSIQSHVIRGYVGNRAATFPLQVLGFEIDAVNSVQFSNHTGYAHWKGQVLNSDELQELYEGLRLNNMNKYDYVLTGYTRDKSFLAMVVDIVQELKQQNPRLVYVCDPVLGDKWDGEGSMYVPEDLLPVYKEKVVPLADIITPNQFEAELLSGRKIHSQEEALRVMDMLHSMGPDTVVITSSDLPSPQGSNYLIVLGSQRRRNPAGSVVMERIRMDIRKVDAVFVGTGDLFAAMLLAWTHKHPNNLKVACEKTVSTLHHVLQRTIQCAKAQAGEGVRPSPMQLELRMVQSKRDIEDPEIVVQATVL

Test [8] concerns the target STE20-like serine/threonine-protein kinase (Homo sapiens, UniProt Q9H2G2).
Test [9] concerns the target T5, Serine/threonine-protein kinase STK11 (Homo sapiens, UniProt Q15831).
T5 sequence (Q15831 whole entry): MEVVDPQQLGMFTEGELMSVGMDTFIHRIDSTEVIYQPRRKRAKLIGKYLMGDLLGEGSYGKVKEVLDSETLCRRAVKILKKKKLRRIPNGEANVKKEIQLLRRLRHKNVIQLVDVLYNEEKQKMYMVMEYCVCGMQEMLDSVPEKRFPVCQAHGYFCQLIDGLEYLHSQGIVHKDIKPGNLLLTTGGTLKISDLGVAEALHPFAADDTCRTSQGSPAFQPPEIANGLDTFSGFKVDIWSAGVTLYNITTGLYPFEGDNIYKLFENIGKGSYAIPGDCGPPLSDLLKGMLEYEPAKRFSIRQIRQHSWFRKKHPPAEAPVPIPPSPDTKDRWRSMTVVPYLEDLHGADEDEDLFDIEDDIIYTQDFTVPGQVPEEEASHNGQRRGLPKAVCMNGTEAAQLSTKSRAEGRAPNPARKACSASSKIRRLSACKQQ

For test [10], the target named is T6, Serine/threonine-protein kinase 3 (Homo sapiens, UniProt Q13188).
T6 sequence (Q13188 whole entry): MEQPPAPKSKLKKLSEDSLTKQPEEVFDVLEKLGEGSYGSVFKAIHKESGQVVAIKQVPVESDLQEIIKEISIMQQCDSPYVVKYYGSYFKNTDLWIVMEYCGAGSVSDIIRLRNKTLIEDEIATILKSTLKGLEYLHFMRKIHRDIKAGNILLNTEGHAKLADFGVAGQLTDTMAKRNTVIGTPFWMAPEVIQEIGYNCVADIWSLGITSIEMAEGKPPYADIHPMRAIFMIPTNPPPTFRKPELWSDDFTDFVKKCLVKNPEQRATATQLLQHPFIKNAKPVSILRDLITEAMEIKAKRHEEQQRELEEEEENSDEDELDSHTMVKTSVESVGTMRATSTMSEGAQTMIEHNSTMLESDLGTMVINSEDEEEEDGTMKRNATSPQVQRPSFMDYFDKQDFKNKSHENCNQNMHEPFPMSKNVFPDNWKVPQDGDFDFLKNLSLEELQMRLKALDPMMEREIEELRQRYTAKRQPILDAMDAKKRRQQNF

The source made the active and inactive calls.
Further: in the data inactive means no Kd found up to 30 µM.

Mitogen-activated protein kinase 8, sequence (P45983 whole entry): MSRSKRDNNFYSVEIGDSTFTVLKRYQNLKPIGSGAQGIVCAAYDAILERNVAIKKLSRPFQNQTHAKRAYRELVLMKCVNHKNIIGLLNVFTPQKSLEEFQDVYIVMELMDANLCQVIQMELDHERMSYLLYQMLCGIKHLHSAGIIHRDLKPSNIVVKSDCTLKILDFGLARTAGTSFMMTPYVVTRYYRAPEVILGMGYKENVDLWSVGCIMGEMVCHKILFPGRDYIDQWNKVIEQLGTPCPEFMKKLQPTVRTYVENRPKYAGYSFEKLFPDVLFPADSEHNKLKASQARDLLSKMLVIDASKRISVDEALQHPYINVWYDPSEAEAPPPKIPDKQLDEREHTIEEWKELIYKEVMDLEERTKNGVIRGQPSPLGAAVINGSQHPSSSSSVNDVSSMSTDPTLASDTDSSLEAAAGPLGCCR
BMP-2-inducible protein kinase, sequence (Q9NSY1 whole entry): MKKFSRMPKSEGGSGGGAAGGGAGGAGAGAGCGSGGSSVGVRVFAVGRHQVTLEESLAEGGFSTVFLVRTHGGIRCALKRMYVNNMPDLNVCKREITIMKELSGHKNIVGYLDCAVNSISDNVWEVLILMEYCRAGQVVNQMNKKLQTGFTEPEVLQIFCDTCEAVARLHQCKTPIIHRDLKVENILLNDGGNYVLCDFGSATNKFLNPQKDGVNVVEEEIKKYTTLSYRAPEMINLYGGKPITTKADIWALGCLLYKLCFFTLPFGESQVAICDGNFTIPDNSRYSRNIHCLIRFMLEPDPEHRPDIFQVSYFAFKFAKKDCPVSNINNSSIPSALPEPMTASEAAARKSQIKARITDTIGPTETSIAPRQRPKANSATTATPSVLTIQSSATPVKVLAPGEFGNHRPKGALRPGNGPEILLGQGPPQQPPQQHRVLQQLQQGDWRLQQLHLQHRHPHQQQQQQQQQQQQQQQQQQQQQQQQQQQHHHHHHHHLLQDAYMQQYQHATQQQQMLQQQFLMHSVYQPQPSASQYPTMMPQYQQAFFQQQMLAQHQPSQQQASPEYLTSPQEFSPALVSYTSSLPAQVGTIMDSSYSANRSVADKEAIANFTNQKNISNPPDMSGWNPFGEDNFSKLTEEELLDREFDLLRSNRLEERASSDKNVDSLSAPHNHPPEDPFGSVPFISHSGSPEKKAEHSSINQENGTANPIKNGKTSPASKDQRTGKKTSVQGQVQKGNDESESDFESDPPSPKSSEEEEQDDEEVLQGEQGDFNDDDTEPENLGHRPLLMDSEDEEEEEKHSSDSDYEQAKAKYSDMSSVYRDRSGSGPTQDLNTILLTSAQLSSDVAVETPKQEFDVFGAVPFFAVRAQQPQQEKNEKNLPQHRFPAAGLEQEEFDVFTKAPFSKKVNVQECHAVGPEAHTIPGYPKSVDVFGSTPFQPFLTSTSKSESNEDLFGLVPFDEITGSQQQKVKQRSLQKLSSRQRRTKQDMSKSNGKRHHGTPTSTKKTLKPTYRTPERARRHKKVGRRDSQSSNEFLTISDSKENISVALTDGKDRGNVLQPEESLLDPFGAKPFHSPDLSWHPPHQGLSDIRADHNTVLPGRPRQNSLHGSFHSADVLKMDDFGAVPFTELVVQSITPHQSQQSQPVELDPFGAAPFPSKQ
STE20-like serine/threonine-protein kinase, sequence (Q9H2G2 whole entry): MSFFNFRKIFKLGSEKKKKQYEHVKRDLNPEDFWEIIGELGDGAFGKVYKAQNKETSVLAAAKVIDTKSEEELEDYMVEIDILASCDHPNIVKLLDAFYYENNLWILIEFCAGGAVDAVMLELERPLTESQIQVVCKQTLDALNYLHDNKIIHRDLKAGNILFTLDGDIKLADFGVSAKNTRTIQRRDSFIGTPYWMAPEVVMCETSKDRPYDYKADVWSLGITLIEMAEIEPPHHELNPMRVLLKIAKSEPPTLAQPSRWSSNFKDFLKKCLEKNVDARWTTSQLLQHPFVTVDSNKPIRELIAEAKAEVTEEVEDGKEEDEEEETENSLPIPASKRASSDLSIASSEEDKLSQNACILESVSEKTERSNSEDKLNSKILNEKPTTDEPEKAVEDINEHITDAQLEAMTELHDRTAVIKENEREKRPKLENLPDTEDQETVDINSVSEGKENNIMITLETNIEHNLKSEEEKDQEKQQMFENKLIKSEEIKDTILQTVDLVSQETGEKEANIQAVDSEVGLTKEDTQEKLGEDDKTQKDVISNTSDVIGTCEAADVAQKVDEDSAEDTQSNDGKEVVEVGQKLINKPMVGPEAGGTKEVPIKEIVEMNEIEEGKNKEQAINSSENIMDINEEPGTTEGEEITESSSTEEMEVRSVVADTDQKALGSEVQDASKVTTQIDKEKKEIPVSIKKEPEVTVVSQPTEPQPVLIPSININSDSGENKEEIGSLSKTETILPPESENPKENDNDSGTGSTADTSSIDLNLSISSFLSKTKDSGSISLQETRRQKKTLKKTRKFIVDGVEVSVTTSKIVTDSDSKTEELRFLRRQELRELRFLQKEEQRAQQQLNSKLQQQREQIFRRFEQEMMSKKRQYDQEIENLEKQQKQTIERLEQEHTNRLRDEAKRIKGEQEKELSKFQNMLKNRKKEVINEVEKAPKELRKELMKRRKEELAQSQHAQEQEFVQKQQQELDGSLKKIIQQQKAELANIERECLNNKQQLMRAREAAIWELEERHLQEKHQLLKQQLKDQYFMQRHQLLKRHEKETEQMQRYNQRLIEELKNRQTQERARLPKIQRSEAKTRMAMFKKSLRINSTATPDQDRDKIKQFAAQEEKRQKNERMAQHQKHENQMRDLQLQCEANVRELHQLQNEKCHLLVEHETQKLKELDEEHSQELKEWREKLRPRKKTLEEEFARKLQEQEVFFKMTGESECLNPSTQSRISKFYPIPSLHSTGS

For orientation: Kd means the concentration at which binding is half-saturated. Turning to `COc1cc2ncnc(Nc3ccc(F)c(Cl)c3)c2cc1NC(=O)/C=C/CN1CCCCC1` [DACOMITINIB ANHYDROUS], the Kd in test [1], in [2], in test [3], in test [4], in [5] and in test [6] was > 30 µM (inactive) in each case. The Kd in test [7], in test [8], in test [9] and in test [10] was > 30 µM (inactive) throughout.

Regarding `COCCN1CCN(Cc2ccc(-c3n[nH]c4c3C(=O)c3c(NC(=O)NN5CCOCC5)cccc3-4)cc2)CC1` [RGB-286638], the Kd is 0.008 µM (active) in [1]; > 30 µM (inactive) in [2]; > 30 µM (inactive) in [3]; > 30 µM (inactive) in test [4]; 0.731 µM (active) in test [5]; > 30 µM (inactive) in [6]. For the same compound, the Kd in test [7], in test [8], in [9] and in test [10] was > 30 µM (inactive) each time.

Consider `O=C(NOC[C@H](O)CO)c1ccc(F)c(F)c1Nc1ccc(I)cc1F` [MIRDAMETINIB], for which the Kd in [1], in test [2], in test [3], in [4], in test [5] and in test [6] was > 30 µM (inactive) each time. For the same compound, the Kd in [7], in test [8], in [9] and in test [10] was > 30 µM (inactive) each time.

Regarding `CNC(=O)c1cccc(-c2ccc3c(N4CCOC[C@@H]4C)nc(N4CCOC[C@@H]4C)nc3n2)c1` [VISTUSERTIB], the Kd in test [1], in [2], in test [3], in test [4], in test [5] and in test [6] was > 30 µM (inactive) each time. Further, the Kd in test [7], in test [8], in test [9] and in test [10] was > 30 µM (inactive) in each case.

On to `COc1cc2nccc(Oc3ccc(NC(=O)C4(C(=O)Nc5ccc(F)cc5)CC4)cc3)c2cc1OC` [CABOZANTINIB], for which the Kd in test [1], in [2], in test [3], in [4], in test [5] and in [6] was > 30 µM (inactive) in each case. The Kd in test [7], in test [8], in test [9] and in [10] was > 30 µM (inactive) each time.

Turning to `Cc1cc(Nc2nc(N[C@@H](C)c3ncc(F)cn3)ncc2Cl)n[nH]1` [AZD-1480], the Kd in [1], in test [2], in test [3], in test [4], in [5] and in test [6] was > 30 µM (inactive) in each case. For the same compound, the Kd was > 30 µM (inactive) in [7], 0.686 µM (active) in test [8], 0.714 µM in [9] and 0.86 µM (active) in test [10].

For `COc1cccc2cc(-c3nc([C@H]4CC[C@H](C(=O)O)CC4)n4ncnc(N)c34)[nH]c12` [OSI-027], the Kd in [1], in [2], in test [3], in test [4], in [5] and in [6] was > 30 µM (inactive) in each case. For the same compound, the Kd in test [7], in test [8], in [9] and in test [10] was > 30 µM (inactive) in each case.

In the case of `COc1ccc(-c2ccc3ncc4c(c3c2)n(-c2ccc(N3CCNCC3)c(C(F)(F)F)c2)c(=O)n4C)cn1` [BGT-226 FREE BASE], the Kd in test [1], in test [2], in [3], in [4], in test [5] and in [6] was > 30 µM (inactive) throughout. Also, the Kd in [7], in [8] and in test [10] was > 30 µM (inactive) in each case.

On to `CC(C)CC(=O)Nc1[nH]nc2c1CN(C(=O)C1CCN(C)CC1)C2(C)C` [PHA-793887], for which the Kd in test [1], in [2], in test [3], in [4], in test [5] and in test [6] was > 30 µM (inactive) in each case. The Kd in test [7], in test [8] and in test [10] was > 30 µM (inactive) each time.

As for `Cc1c(NC(=O)OC[C@@H]2COCCN2)cn2ncnc(Nc3ccc4c(cnn4Cc4cccc(F)c4)c3)c12` [AC-480], the Kd in test [1], in test [2], in test [3], in test [4], in [5] and in test [6] was > 30 µM (inactive) throughout. Moreover, the Kd in test [7], in test [8] and in test [10] was > 30 µM (inactive) throughout.
